Test results reported in patent publication US20120076781A1, “METHODS OF TREATING CANCERS WITH HER3 ANTISENSE OLIGONUCLEOTIDES” (ENZON PHARMACEUTICALS, INC., priority 2009, published 2012).
Marks after values point to notes of the source that are not given here. In the oligonucleotide strings, read from the 5' end, every base follows the letter of its sugar. An asterisk marks phosphorothioate; unmarked linkages are phosphodiester. Other units and linkages are bracketed, terminal groups are in braces. A string of capitals states the bases alone. l = locked nucleic acid (LNA); [5mC] = 5-methylcytosine; d = 2'-deoxy (DNA)

Assays:
HER3 mRNA [1] = assay: HER3 mRNA knockdown in N87 (gastric carcinoma) xenograft tumor; type: in vivo, human; settings: 25 mg/kg, q3d x 5, i.v.
Protocol: (§1) To evaluate the knockdown efficacy of the HER3 oligomeric compounds in vivo, the female nude mice bearing 15PC3 xenografts developed by subcutaneous injection of 5×10^6 cells/mouse into the right axillary flank, were injected intravenously with the oligomers at various doses and injection schedules (i.e. single dose, qd, q3d, q4d). Scrambled oligomer SEQ ID NO: 236 served as a negative control. 24 hours after the last injection, the mice were euthanized and liver and tumor tissues were collected in RNAlater solution (Ambion). Total RNA was purified from the tissues and the levels of HER3 mRNA were determined by quantitative reverse transcription-real time PCR (qRT-PCR) using the QuantiTect Probe RT-PCR kit (Cat#: 204443; Qiagen). GAPDH mRNA served as an internal control.
(§2) The knockdown efficacy of oligomers was evaluated in vivo in nude mice bearing xenograft tumors derived from 15PC3 cells or A549 cells (NSCLC) or N87 cells (gastric carcinoma) using a similar protocol to the one described above in Example 11. […] Tissues were harvested 3 or 4 days after the last injection.
(§3) Data in Tables 6 and 7 are presented as % HER3 mRNA or HIF-1 alpha mRNA relative to saline treated controls in liver and tumor samples after i.v. dosing of animals with the indicated oligomers.

HER3 mRNA [2] = assay: HER3 mRNA knockdown in liver of xenograft-bearing nude mice, different dosing cycle; type: in vivo, mouse
Protocol: as §1, §2, §3

human HER3 mRNA [3] = assay: Down-regulation of HER3 mRNA in transfected 15PC3 cells, real-time PCR; type: cell-based; settings: 25 nM
Protocol: (§4) 15PC3: The human prostate cancer cell line 15PC3 was cultured in DMEM (Sigma)+10% fetal bovine serum (FBS)+2 mM Glutamax I+gentamicin (25 μg/ml).
(§5) The cells were treated with oligonucleotides using the cationic liposome formulation LipofectAMINE 2000 (Gibco) as transfection vehicle. Cells were seeded in 6-well cell culture plates (NUNC) and treated when 80-90% confluent. Oligomer concentrations ranged from 1 nM to 25 nM final concentration. Formulation of oligomer-lipid complexes was carried out essentially as described by the manufacturer using serum-free OptiMEM (Gibco) and a final lipid concentration of 5 μg/mL LipofectAMINE 2000. Cells were incubated at 37° C. for 4 hours and treatment was stopped by removal of oligomer-containing culture medium. Cells were washed and serum-containing medium was added. After oligomer treatment, cells were allowed to recover for 20 hours before they were harvested for RNA analysis.
(§6) Total RNA was extracted from cells transfected as described above and using the Qiagen RNeasy kit (Qiagen cat. no. 74104) according to the manufacturer's instructions. First strand synthesis was performed using Reverse Transcriptase reagents from Ambion according to the manufacturer's instructions.
(§7) For each sample 0.5 μg total RNA was adjusted to (10.8 μl) with RNase free H2O and mixed with 2 μl random decamers (50 μM) and 4 μl dNTP mix (2.5 mM each dNTP) and heated to 70° C. for 3 min after which the samples were rapidly cooled on ice. After cooling the samples on ice, 2 μl 10× Buffer RT, 1 μl MMLV Reverse Transcriptase (100 U/μl) and 0.25 μl RNase inhibitor (10 U/μl) was added to each sample, followed by incubation at 42° C. for 60 min, heat inactivation of the enzyme at 95° C. for 10 min, and then cooling the sample to 4° C.
(§8) The sample content of human HER3, EGFR and HER2 mRNA was quantified using the human HER3, EGFR and HER2 ABI Prism Pre-Developed TaqMan Assay Reagents (Applied Biosystems cat. no. Hs00951444_ml (HER3), Hs00193306_ml (EGFR) and Hs00170433_ml (HER2) according to the manufacturer's instructions.
(§9) Glyceraldehyde-3-phosphate dehydrogenase (GAPDH) mRNA quantity was used as an endogenous control for normalizing any variance in sample preparation. The sample content of human GAPDH mRNA was quantified using the human GAPDH ABI Prism Pre-Developed TaqMan Assay Reagent (Applied Biosystems cat. no. 4310884E) according to the manufacturer's instructions.
(§10) The cDNA from the first strand synthesis performed as described in Example 5 was diluted 2-20 times, and analyzed by real time quantitative PCR using Taqman 7500 FAST or 7900 FAST from Applied Biosystems. The primers and probe were mixed with 2× Taqman Fast Universal PCR master mix (2×) (Applied Biosystems Cat. #4364103) and added to 4 μl cDNA to a final volume of 10 μl. Each sample was analysed in duplicate. Assaying 2-fold dilutions of a cDNA that had been prepared on material purified from a cell line expressing the RNA of interest generated standard curves for the assays. Sterile H2O was used instead of cDNA for the no-template control. PCR program: 95° C. for 30 seconds, followed by 40 cycles of 95° C., 3 seconds, 60° C., 20-30 seconds. Relative quantities of target mRNA sequence were determined from the calculated Threshold cycle using the Applied Biosystems Fast System SDS Software Version 1.3.1.21. or SDS Software Version 2.3.
(§11) Oligonucleotides presented in Table 4 were evaluated for their potential to down-regulate HER3, EGFR and HER2 mRNA at concentrations of 1, 5 and 25 nM in 15PC3 cells (or HUH-7 as indicated by *) (see FIGS. 2, 3, 4 and 5). SEQ ID NOs: 235 and 236 were used as scrambled controls.
(§12) The data in Table 4 are presented as percentage down-regulation of mRNA relative to mock transfected cells at 25 nM. Lower-case letters represent DNA monomers, bold, upper-case letters represent β-D-oxy-LNA monomers. All cytosines in LNA monomers are 5-methylcytosines. Subscript “s” represents a phosphorothioate linkage.

human HER3 mRNA [4] = assay: HER3 mRNA knockdown in 15PC3 xenograft tumor in nude mice, qd x 5 (qRT-PCR); type: in vivo; settings: 32.4 mg/kg, i.v., relative to saline controls
Protocol: as §1
(§13) 200 ng of total RNA was used in the PCR reaction. The data analyses were performed by using the ABI-7500 PCR Fast System included software.
(§14) Data in Table 5 are presented as % HER3 mRNA levels relative to saline treated controls in liver and tumor samples after i.v. dosing of animals on 5 consecutive days with oligonucleotides in the doses indicated.

HER3 mRNA [5] = assay: HER3 mRNA knockdown in 15PC3 xenograft tumor, different dosing cycle; type: in vivo, human; settings: 32.4 x 4 mg/kg i.v., every third day
Protocol: as §1
(§15) The knockdown efficacy of oligomers was evaluated in vivo in nude mice bearing xenograft tumors derived from 15PC3 cells or A549 cells (NSCLC) or N87 cells (gastric carcinoma) using a similar protocol to the one described above in Example 11. Oligomers were administered by injection every third day in 2-4 doses. Tissues were harvested 3 or 4 days after the last injection.
as §3

HIF-1 alpha mRNA = HIF-1 alpha mRNA in 15PC3 xenograft tumor, different dosing cycle; type: in vivo, human; settings: 32.4 x 4 mg/kg i.v., every third day
Protocol: as §1, §15, §3

human HER2 mRNA = assay: Down-regulation of HER2 mRNA in transfected 15PC3 cells, real-time PCR; type: cell-based; settings: 25 nM
Protocol: as §4, §5, §6, §7, §8, §9, §10, §11, §12

Mouse HER3 mRNA = assay: HER3 mRNA knockdown in liver of nude mice bearing 15PC3 xenografts, qd x 5 (qRT-PCR); type: in vivo; settings: i.v.
Protocol: as §1, §13, §14

human EGFR mRNA = assay: Down-regulation of EGFR mRNA in transfected 15PC3 cells, real-time PCR; type: cell-based; settings: 25 nM
Protocol: as §4, §5, §6, §7, §8, §9, §10, §11, §12

[6] = test system: HCC827R gefitinib resistant cells; assay: Cell proliferation of HCC827R cells under gefitinib (MTT assay); type: cell-based, human; settings: highest concentration tested 10 μM
Protocol: HCC827 lung adenocarcinoma cells (ATCC CRL-2868) were maintained at 37° C. in a humidified atmosphere of 5% CO2 and 95% air in RPMI medium supplemented with 10% fetal bovine serum. To generate gefitinib resistance, cells were treated with increasing amounts of gefitinib (up to 500 nM) for a period of 3 months.

human HER3 mRNA [7] = assay: Down-regulation of HER3 mRNA in transfected HUH-7 cells, real-time PCR; type: cell-based; settings: 25 nM, HUH-7 cells (indicated by *)
Protocol: HUH7: The human hepatocarcinoma cell line was cultured in DMEM (Sigma)+10% fetal bovine serum (FBS)+2 mM Glutamax I+gentamicin (25 μg/ml)+1× Non Essential Amino Acids.
The cells were treated with oligonucleotides using the cationic liposome formulation LipofectAMINE 2000 (Gibco) as transfection vehicle. Cells were seeded in 6-well cell culture plates (NUNC) and treated when 80-90% confluent. Oligomer concentrations ranged from 1 nM to 25 nM final concentration. Formulation of oligomer-lipid complexes was carried out essentially as described by the manufacturer using serum-free OptiMEM (Gibco) and a final lipid concentration of 5 μg/mL LipofectAMINE 2000. […]
as §8
as §9, with “instructions. […]” for “instructions.”

## TSASGScScStStStSgSaScScStSCSTSC (antisense lT*lA*lG*dC*dC*dT*dT*dT*dG*dA*dC*dC*dT*l[5mC]*lT*l[5mC]) [SEQ ID NO: 249, reference compound]
HER3 mRNA [1]
  HER3 Tumor: 99.0 ± 8.9 % saline control
HER3 mRNA [2]; N87 xenograft mice, 25 mg/kg, q3d x 5, i.v.
  HER3 Liver: 123 ± 4.5 % saline control

## ASGSAScSaStScSaScStScStSgSGSTSG (antisense lA*lG*lA*dC*dA*dT*dC*dA*dC*dT*dC*dT*dG*lG*lT*lG) [SEQ ID NO: 172, β-D-oxy-LNA/DNA phosphorothioate gapmer antisense oligonucleotide targeting HER3]
Human HER3 mRNA [3]
  HER3: percentage down-regulation of mRNA relative to mock transfected cells: 84.2%
Human HER3 mRNA [4]
  HER3 mRNA Tumor: 78.1 ± 15.3%
HER3 mRNA [5]
  Tumor HER3 mRNA relative to saline treated controls: 107.3 ± 17%
HIF-1 alpha mRNA
  Tumor Hif1A mRNA relative to saline treated controls: 100.3 ± 7.5%
HER3 mRNA [2]; 15PC3 xenograft mice, 32.4 x 4 mg/kg i.v., every third day
  Liver HER3 mRNA relative to saline treated controls: 44.3 ± 10.6%
Human HER2 mRNA
  HER2: percentage down-regulation of mRNA relative to mock transfected cells: 61%
Mouse HER3 mRNA; 9.7 mg/kg
  HER3 mRNA Liver: 12.2 ± 5.9 % of Sal ctrl
Mouse HER3 mRNA; 32.4 mg/kg
  HER3 mRNA Liver: 7.4 ± 5.2 % of Sal ctrl
Human EGFR mRNA
  EGFR: percentage down-regulation of mRNA relative to mock transfected cells: 86.2%

## COc1cc2ncnc(Nc3ccc(F)c(Cl)c3)c2cc1OCCCN1CCOCC1 [gefitinib]
[6]
  cell proliferation of HCC827R cells under gefitinib: resistant to gefitinib even at the highest concentration tested

## GSASCSaStScSaScStScStSgSgSTSGST (lG*lA*l[5mC]*dA*dT*dC*dA*dC*dT*dC*dT*dG*dG*lT*lG*lT; antisense) [SEQ ID NO: 196]
Human HER3 mRNA [7]
  HER3: percentage down-regulation of mRNA relative to mock transfected cells: 77.0%*
